In patent US9777010B2, “Substituted 4-phenylpiperidines, their preparation and use” (THE TRUSTEES OF COLUMBIA UNIVERSITY IN THE CITY OF NEW YORK, priority 2014, dated 2017):

Legend:
RBP4-TTR interaction = RBP4-TTR interaction (Homo sapiens (Human), UniProt P02753); assay: TR-FRET (HTRF) assay for retinol-induced RBP4-TTR interaction; assay type: biochemical; conditions: in the presence of 1 μM retinol; read-out: HTRF assay for antagonists of RBP4-TTR interaction: IC50
Procedure: Binding of a desired RBP4 antagonist displaces retinol and induces hindrance for RBP4-TTR interaction resulting in the decreased FRET signal (FIG. 7). Bacterially expressed MBP-RBP4 and untagged TTR were used in this assay. […] Following cell lysis, recombinant RBP4 was purified from the soluble fraction using the ACTA FPLC system (GE Healthcare) equipped with the 5-ml the MBP Trap HP column. Human untagged TTR was purchased from Calbiochem. […] HTRF assay was performed in white low volume 384 well plates (Greiner-Bio) in a final assay volume of 16 μl per well. The reaction buffer contained 10 mM Tris-HCl pH 7.5, 1 mM DTT, 0.05% NP-40, 0.05% Prionex, 6% glycerol, and 400 mM KF. […] Titration of test compounds in this assay was conducted in the presence of 1 μM retinol. All reactions were assembled in the dark under dim red light and incubated overnight at +4° C. wrapped in aluminum foil. TR-FRET signal was measured in the SpectraMax M5e Multimode Plate Reader (Molecular Device). […] The TR-FRET signal was expressed as the ratio of fluorescence intensity: Flu665/Flu620×10,000.

serum RBP4 and retinol = conditions: in vivo; cited from earlier work

Structure (SMILES) | IC50 (RBP4-TTR interaction) [nM] | serum RBP4 and retinol (serum RBP4 and retinol)
COCCN1CCc2c(C(=O)N3CCC(c4cccc(F)c4C(F)(F)F)CC3)n[nH]c2C1 [Compound 77, (4-(3-Fluoro-2-(trifluoromethyl)phenyl)piperidin-1-yl)(6-(2-methoxyethyl)-4,5,6,7-tetrahydro-3aH-pyrazolo[3,4-c]pyridin-3-yl)methanone] | 1.62 | 
CC1=C(/C=C/C(C)=C/C=C/C(C)=C/C(=O)Nc2ccc(O)cc2)C(C)(C)CCC1 [fenretinide, N-(4-hydroxy-phenyl)retinamide] |  | reduce serum RBP4 and retinol
